From patent US20100093662A1, “NOVEL AMPHIPHILIC CYCLODEXTRIN DERIVATIVES” (CENTRE NATIONAL DE LA RECHERCHE SCIENTIFIQUE-CNRS-, priority 2006, published 2010)

Experiments:
plasmid pTG11236 = experiment: Electrophoretic analysis of nanoparticles of DNA (agarose gel, ethidium bromide); assay type: binding; details: for accessibility of the DNA at the intercalation by ethidium bromide: N/P ratio=5, plasmid pTG11236
Method: The plasmid pTG11236 (pCMV-SV40-luciferase-SV40 pA), used in the preparation of DNA complexes and for transfection tests is a plasmid with 5739 pairs of bases. The quantities of compounds used are calculated to obtain a DNA concentration of 0.1 mg·mL^−1 (303 μM in phosphate equivalent) and the desired Nitrogen/Phosphate (N/P) ratios. Tests for values of N/P=5, 10, 30 and 50 were carried out both for compound no. 8 and for compound no. 16. As a reference transfection formulation (positive control), we used polyplexes formulated with the same plasmid and the polycationic polymer polyethyleneimine (branched PEI, 25 kDa), and naked DNA as a negative control.
For the preparation of the complexes, the DNA is diluted in HEPES (20 mM, pH 7.4) until a final concentration of 303 μM in phosphate equivalent, then the quantity of compound no. 8 or no. 16 necessary, obtained from a stock solution of 20 mg·mL^−1 in DMSO-water 1:2 (v/v) is added in order to obtain the desired N/P ratio. For the PEI, a 0.1M stock solution in water is used. The mixtures are vortexed for 10 sec and used in the characterisation and for the transfection tests, as described below.
10 μl of each formulation of complexes prepared as mentioned above are diluted once in the loaded buffer (glycerol+bromophenol blue+Tris-acetate-EDTA or TAE). 1 μl of this solution are deposited on a gel with 8% agarose. The rest of the sample is diluted once with a decomplexing solution with 8% sodium dodecyl sulfate (SDS) in TAE, then 10 μl are also deposited on a gel. The electrophoresis is carried out for […] at 50V. The gel is then developed with ethidium bromide (Sigma) in TAE ([…] of a solution of ethidium bromide with a concentration of 10 mg·mL^−1 in 200 mL of TAE). The DNA is also visualised and photographed with an UV transilluminator. FIGS. 2 and 3 are photos of electrophoretic analyses, carried out on agarose gel in the presence of ethidium bromide, of DNA complexes/nanoparticles obtained with compound no. 8 according to an N/P ratio of 5, 10, 30 and 50 respectively.

BNL-CL2 cells [1] = experiment: In vitro transfection of nanoparticles of DNA, luciferase assay; assay type: cell-based, Murine; details: 0.5 μg of DNA per well (FIG. 6: N/P=10)
Method: (§1) Murine embryo cells BNL-CL2 are grown in 96-well plates until a density of 2×10^4 cells/well in a DMEM culture medium (Dulbelcco's Modified Eagle Medium, Gibco-BRL) containing 10% foetal calf serum (SVF; Sigma) at 37° C. in a humid atmosphere with a proportion of 5% CO2/95% air.
(§2) The complexes between compound no. 8, no. 16 or polyethyleneimine (PEI), and plasmid pTG11236 are diluted in 100 μl of DMEM so as to obtain 0.5 μg of DNA in the well.
(§3) The culture medium is removed and replaced by 100 μl of solution of nanoparticle complex/DNA in DMEM. After 4 hrs and 24 hrs, 50 and 100 μL of DMEM containing 30% and 10% of FCS, respectively, are added. After 48 hrs, the transfection is stopped, the culture medium is removed and the cells are washed with PBS (2×100 μL), then lysed with 50 μL of lysis buffer (Promega, Charbonnières, France). The lysates are frozen at −32° C. until the luciferase and protein assay.
The luciferase assay is used to assess the efficacy of transfection. This assay is based on a chimioluminescence reaction whose principle is based on oxydation by luciferase of its substrate (luciferine) with concomitant production of a photon. The activity of the luciferase is measured with a Biolumat LB96P WMP100 apparatus (BERTHOLD) for 10 sec after the injection of 50 μl of reagent containing luciferine (Prmèga assay kit) in each well containing 10 μl of cell extract. […]

BNL-CL2 cells [2] = experiment: Cell viability after transfection (BCA protein assay); assay type: cell-based, Murine; details: for cell viability compared with PEI/DNA polyplexes at the same N/P ratios: N/P ratios>10; for cell viability after transfection: complexes with pTG11236, N/P 5 to 50, 0.5 μg plasmid/well
Method: as §1, §2, §3
The protein assay is based on the BCA test (Pierce). The protein assay is carried out on 15 μl of cell lysate to which are added 300 μl of Pierce reagent (BCA Protein Assay Reagent). It consists of a colorimetric assay which is carried out with UV/visible MRX spectrophotometry (DYNEX Technologies). For each assay, a standard series is carried out with BSA (Bovine Serum Albumin, BIO-RAD), of 0 to 30 μg per well. The reading is taken at 570 nm, after 30 […] at ambient temperature. With this standard BSA series, the OD may be expressed in mg of protein/well.
The ratio of the quantities of proteins corresponding to the transfected and non transfected (100% cell viability) cells is used to assess the cell viability of the complexes (expressed in %).
All of the formulations are tested at least 3 times. The results obtained were processed using STATGRAPHICS Plus5.1 software (trade mark). Anova analysis of variance is carried out on the values of the efficacies of transfection (LoglO(fg luciferase/mg protein)) and on the cell viability. It is possible to analyse the impact (on the transfection or cell viability) of the variation of one or several factors by applying a mono- or multifactorial analysis of variance, respectively. The method used to compare the means is the HSD (honestly significant difference) intervals by Tukey.

[3] = Size and polydispersion of white homogenous nanospheres (quasi-elastic diffusion of light), physical stability over time; assay type: physicochemical
Method: The method used to prepare white homogenous nanospheres consists in introducing an organic phase of acetone (or tetrahydrofurane) and an amphiphilic cyclodextrin derivative from the invention (1 mg·mL^−1) in an aqueous phase of equivalent volume or a double volume (distilled water), under magnetic stirring (500 r.p.m.) at 25° C. After nanoprecipitation, the organic solvent is eliminated under reduced pressure at +35° C. The aqueous suspension presenting an opalescent to milky appearance (according to the products used) is then concentrated until the final volume desired is obtained, then filtered on a 0.8 μm filter (Millex AA, Millipore, France).
The colloid suspensions are then characterised as regards the granulometry (mean size and polydisperion) and, when they incorporate loaded amphiphilic cyclodextrins, by their zeta potential. The characterisation is carried out using the following methods:
The quasi-elastic diffusion of light is used. A Zetasizer 3000 apparatus equipped with a K7132 correlator (Malvern Instruments, RU) was used. The conditions for measurement are as follows: angle of detection 90°, temperature 25±0.1° C., apparent viscosity 0.89 mPa·s. Before measuring the size, samples are diluted in distilled water if necessary. The hydrodynamic diameter (mean Z) and polydispersion index (PI) of the nanoparticles in suspension are calculated in intensity by the cumulant method by carrying out 3 measurements on the same sample. The value of the hydrodynamic diameter is calculated using the measurement of the translational coefficient of diffusion of particles with Brownian movement. An NanoZS apparatus (Malvern Instruments) was also used to measure the size of the nanocapsules. In the same way, the samples are diluted before measurement, if necessary in water added to Montanox 80 (trade mark).
The studies on the physical stability of particles were carried out over periods ranging from 1 month to 8 months. The corresponding data for a series of amphiphilic cyclodextrins in the invention are indicated in Table 1 providing the granulometric characteristics (mean size and polydispersion index or mean PI), with evolution over time, of different homogenous nanospheres derived from the compounds indicated in the left column, the reference number for said compounds corresponding to those of the compounds described in the above examples.

| Molecule | accessibility of the DNA at the intercalation by ethidium bromide (plasmid pTG11236) | cell viability compared with PEI/DNA polyplexes at the same N/P ratios (BNL-CL2 cells [2]) | cell viability after transfection (BNL-CL2 cells [2]) | Mean size ± standard deviation (n = 3) ([3]; initial) [nm] | PI (polydispersion index) ([3]; initial) | IP (polydispersion index) ([3]; 3 months) | Mean size ± standard deviation (n = 3) ([3]; 3 months) [nm] | IP (polydispersion index) ([3]; 6 months) | Mean size ± standard deviation (n = 3) ([3]; 6 months) [nm] | further results |
| --- | --- | --- | --- | --- | --- | --- | --- | --- | --- | --- |
| CCCCCC(=O)O[C@@H]1[C@@H](OC(=O)CCCCC)[C@H]2O[C@H]3[C@H](OC(=O)CCCCC)[C@@H](OC(=O)CCCCC)[C@@H](O[C@H]4[C@H](OC(=O)CCCCC)[C@@H](OC(=O)CCCCC)[C@@H](O[C@H]5[C@H](OC(=O)CCCCC)[C@@H](OC(=O)CCCCC)[C@@H](O[C@H]6[C@H](OC(=O)CCCCC)[C@@H](OC(=O)CCCCC)[C@@H](O[C@H]7[C@H](OC(=O)CCCCC)[C@@H](OC(=O)CCCCC)[C@@H](O[C@H]8[C@H](OC(=O)CCCCC)[C@@H](OC(=O)CCCCC)[C@@H](O[C@@H]1[C@@H](CSCCNC(=S)NCCN)O2)O[C@@H]8CSCCNC(=S)NCCN)O[C@@H]7CSCCNC(=S)NCCN)O[C@@H]6CSCCNC(=S)NCCN)O[C@@H]5CSCCNC(=S)NCCN)O[C@@H]4CSCCNC(=S)NCCN)O[C@@H]3CSCCNC(=S)NCCN.Cl.Cl.Cl.Cl.Cl.Cl.Cl [compound no. 16, heptakis[6-desoxy-6-(2-(N′-(2-aminoethyl)thioureido)ethylthio)-2,3-di-O-hexanoyl]cyclomaltoheptaose heptachlorhydrate] | no longer accessible | significantly higher | excellent |  |  |  |  |  |  | levels of transfection compared with N/P 10 polyplexes formulated with PEI (BNL-CL2 cells [1]): equal; levels of transfection, times higher than those with naked DNA (BNL-CL2 cells [1]): about 10,000 times |
| CCCCCC(=O)OC1C2OC(CO)C(OC3OC(CO)C(OC4OC(CO)C(OC5OC(CO)C(OC6OC(CSCCNC(=S)NCCSCC7OC8OC9C(CO)OC(OC%10C(CO)OC(OC%11C(CO)OC(OC%12C(CO)OC(OC%13C(CO)OC(OC%14C(CO)OC(OC7C(O)C8O)C(O)C%14O)C(O)C%13O)C(O)C%12O)C(O)C%11O)C(O)C%10O)C(O)C9O)C(OC7OC(CO)C(OC8OC(CO)C(O2)C(OC(=O)CCCCC)C8OC(=O)CCCCC)C(OC(=O)CCCCC)C7OC(=O)CCCCC)C(OC(=O)CCCCC)C6OC(=O)CCCCC)C(OC(=O)CCCCC)C5OC(=O)CCCCC)C(OC(=O)CCCCC)C4OC(=O)CCCCC)C(OC(=O)CCCCC)C3OC(=O)CCCCC)C1OC(=O)CCCCC (stereo not shown) [compound no. 26] |  |  |  | 100 ± 20 | 0.06 |  |  |  |  |  |
| heptakis(6-azido-6-desoxy-2,3-di-0-myristoyl)cyclomaltoheptaose [compound no. 6] |  |  |  | 171 ± 9 | 0.03 | 0.06 | 157 ± 8 | 0.04 | 198 ± 12 |  |
| heptakis[6-(2-aminoethylthio)-6-desoxy-2,3-di-O-hexanoyl]cyclomaltoheptaose heptachlorhydrate [compound no. 8] | partially accessible | significantly higher | excellent |  |  |  |  |  |  | complexation of the DNA (absence of DNA bands) (plasmid pTG11236; N/P ratio≧10, plasmid pTG11236): total complexation |
| heptakis[6-(2-tert-butoxycarbonylaminoethylthio)-6-desoxy-2,3-di-O-myristoyl]cyclomaltoheptaose [compound no. 10] |  |  |  | 212 ± 14 | 0.11 | 0.07 | 207 ± 1 | 0.32 | 269 ± 64 |  |
| heptakis[6-desoxy-2,3-di-0-myristoyl-6-(2-isothiocyanatoethylthio)]cyclomaltoheptaose [compound no. 12] |  |  |  | 72 ± 32 | 0.31 |  |  |  |  |  |
